Reference: ChEMBL document CHEMBL3751705, “Synthesis and antituberculosis activity of indole-pyridine derived hydrazides, hydrazide-hydrazones, and thiosemicarbazones” (Bioorg Med Chem Lett, 2016)
Converted amounts (≈) assume the structure as drawn. The source made the active and inactive calls. The calls are words filed in the database; no cut-off is given here.

Tests used:
[1] = Selectivity index, ratio of IC50 for C57BL/6 mouse peritoneal macrophages to MIC for Mycobacterium tuberculosis H37Rv
[2] = Cytotoxicity against C57BL/6 mouse peritoneal macrophages assessed as cell viability by lactate dehydrogenase release assay; format: cell-based; settings: C57BL/6, Peritoneal macrophage cell
[3] = system: Mycobacterium tuberculosis; assay: Antituberculosis activity against isoniazid-sensitive Mycobacterium tuberculosis H37Rv by microdilution method; format: functional

| Compound | Selectivity Index [1] | IC50 [2] [µg/mL] | MIC [3] |
| --- | --- | --- | --- |
| CCOC(=O)c1[nH]c2ccccc2c1/C=N\NC(=O)c1ccncc1 | 106.6 | 16 (≈ 47.6 µM) | 0.15 µg/mL (≈ 0.446 µM) |
| CCOC(=O)c1[nH]c2ccc(C)cc2c1/C=N/NC(N)=S |  |  | 2 µg/mL (≈ 6.57 µM) |
| Cc1ccc2[nH]c(C(=O)O)c(/C=N/NC(N)=S)c2c1 |  |  | > 10 µg/mL |
| CCOC(=O)c1[nH]c2ccccc2c1CN(NC(=O)c1ccncc1)C(=O)Nc1ccc(Cl)cc1 |  |  | inactive |
| COc1ccc2[nH]c(C(=O)O)c(/C=N/NC(N)=S)c2c1 |  |  | > 10 µg/mL |
| NNC(=O)c1ccncc1 [ISONIAZID] | >1666 | > 100 | 0.06 µg/mL (≈ 0.438 µM) |
| CCOC(=O)c1[nH]c2ccc(C)cc2c1CNNC(=O)c1ccncc1 |  |  | 0.2 µg/mL (≈ 0.568 µM) |
| O=C(N/N=C\c1c[nH]c2ccccc12)c1cc[n+]([O-])cc1 | 30 | 30 (≈ 107 µM) | 1 µg/mL (≈ 3.57 µM) |
| Cc1ccc2[nH]c(C(=O)O)c(/C=N\NC(=O)c3ccncc3)c2c1 | 250 | 25 (≈ 77.6 µM) | 0.1 µg/mL (≈ 0.31 µM) |
| CC(=O)n1cc(NNC(=O)c2cccnc2)c2ccccc21 |  |  | 20 µg/mL (≈ 68 µM) |
| CCOC(=O)c1[nH]c2ccc(C)cc2c1/C=N\NC(=O)c1ccncc1 | 300 | 15 (≈ 42.8 µM) | 0.05 µg/mL (≈ 0.143 µM) |
| NC(=S)N/N=C/c1c(C(=O)O)[nH]c2ccc(Cl)cc12 |  |  | 10 µg/mL (≈ 33.7 µM) |
| CCOC(=O)c1[nH]c2ccc(Cl)cc2c1CNNC(=O)c1ccncc1 |  |  | 0.2 µg/mL (≈ 0.536 µM) |
| CC(=O)n1cc(NNC(=O)c2cc[n+]([O-])cc2)c2ccccc21 |  |  | 2 µg/mL (≈ 6.45 µM) |
| CCOC(=O)c1[nH]c2ccccc2c1CNNC(=O)c1cc[n+]([O-])cc1 | 8 | 16 (≈ 45.2 µM) | 2 µg/mL (≈ 5.64 µM) |
| CC(=O)n1cc(N(NC(=O)c2ccncc2)C(=O)Nc2ccc(Cl)cc2)c2ccccc21 |  |  | inactive |

| Compound | Selectivity Index [1] | IC50 [2] [µg/mL] | MIC [3] |
| --- | --- | --- | --- |
| CCOC(=O)c1[nH]c2ccccc2c1CNNC(=O)C1CCNCC1.CS(=O)(=O)O |  |  | 20 µg/mL |
| CCOC(=O)c1[nH]c2ccccc2c1CN(NC(=O)c1ccncc1)C(=O)c1ccncc1 |  |  | inactive |
| NNC(=O)c1cccnc1 [NICOTINIC ACID HYDRAZIDE] |  |  | 5 µg/mL (≈ 36.5 µM) |
| CC(=O)n1cc(NNC(=O)c2ccncc2)c2ccccc21 | 250 | 50 (≈ 170 µM) | 0.2 µg/mL (≈ 0.68 µM) |
| CC(=O)n1cc(NNC(=O)c2ccc[n+]([O-])c2)c2ccccc21 |  | 17 (≈ 54.8 µM) | 2 µg/mL (≈ 6.45 µM) |
| CCOC(=O)c1[nH]c2ccc(OC)cc2c1/C=N/NC(N)=S |  |  | > 10 µg/mL |
| CCOC(=O)c1[nH]c2ccccc2c1/C=N\NC(=O)c1cc[n+]([O-])cc1 | 9 | 18 (≈ 51.1 µM) | 2 µg/mL (≈ 5.68 µM) |
| CCOC(=O)c1[nH]c2ccc(Cl)cc2c1/C=N\NC(=O)c1ccncc1 |  |  | 0.1 µg/mL (≈ 0.27 µM) |
| O=C(N/N=C\c1c[nH]c2ccccc12)c1ccncc1 | 400 | 40 (≈ 151 µM) | 0.1 µg/mL (≈ 0.378 µM) |
| NC(=S)N/N=C/c1c(C(=O)O)[nH]c2ccccc12 |  |  | > 10 µg/mL |
| CC(=O)N1C/C(=N\NC(N)=S)c2ccccc21 |  |  | > 10 µg/mL |
| O=C(NNCc1c[nH]c2ccccc12)c1ccncc1 | 150 | 15 (≈ 56.3 µM) | 0.1 µg/mL (≈ 0.376 µM) |
| CCOC(=O)c1[nH]c2ccc(Br)cc2c1CNNC(=O)c1ccncc1 |  |  | 10 µg/mL (≈ 24 µM) |
| NNC(=O)c1ccc[n+]([O-])c1 |  |  | > 10 µg/mL |
| NNC(=O)c1cc[n+]([O-])cc1 | 11.5 | 60 (≈ 392 µM) | 5.2 µg/mL (≈ 34 µM) |
| CCOC(=O)c1[nH]c2ccccc2c1CNNC(=O)c1ccncc1 |  |  | 0.2 µg/mL (≈ 0.591 µM) |
